Measured values from the supplement of paper PMC10307832.

Legend:
Test in all cases: relative viability (nuclei count vs DMSO), 5 days (fraction); higher = more cells survive
EPLC-272H = test system: EPLC-272H
How it was run: (§1)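 Relative viability equals treated-well nuclei counts divided by vehicle-well nuclei counts. Counts came from 4× images of lung cancer cell lines grown in 1536-well plates for 5 days after pin-tool dosing on the day after seeding. Dosing used one drug alone or a fixed anchor-drug dose plus five library-drug doses (not always all listed) in √10 steps, and values are medians of duplicate plates.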

NCI-H2085 = test system: NCI-H2085
How it was run: as §1

NCI-H1975 = test system: NCI-H1975
How it was run: as §1

LXF-289 = test system: LXF-289
How it was run: as §1

SW 900 = test system: SW 900
How it was run: as §1

HCC-827 = test system: HCC-827
How it was run: as §1

LK-2 = test system: LK-2
How it was run: as §1

HCC-78 = test system: HCC-78
How it was run: as §1

SK-LU-1 = test system: SK-LU-1
How it was run: as §1

NCI-H23 = test system: NCI-H23
How it was run: as §1

NCI-H2405 = test system: NCI-H2405
How it was run: as §1

NCI-H322M = test system: NCI-H322M
How it was run: as §1

LCLC-103H = test system: LCLC-103H
How it was run: as §1

EMC-BAC-2 = test system: EMC-BAC-2
How it was run: as §1

NCI-H2126 = test system: NCI-H2126
How it was run: as §1

LOU-NH91 = test system: LOU-NH91
How it was run: as §1

SW 1573 = test system: SW 1573
How it was run: as §1

RERF-LC-KJ = test system: RERF-LC-KJ
How it was run: as §1

NCI-H3122 = test system: NCI-H3122
How it was run: as §1

ChaGo-K-1 = test system: ChaGo-K-1
How it was run: as §1

LU99A = test system: LU99A
How it was run: as §1

NCI-H1666 = test system: NCI-H1666
How it was run: as §1

C=C1C(=O)O[C@@H](CCCCCCCC)[C@@H]1C(=O)O [C-75] + Cc1cc(Nc2cc(N3CCN(C)CC3)nc(Sc3ccc(NC(=O)C4CC4)cc3)n2)n[nH]1 [Tozasertib] (partner 0.1 µM)
relative viability (EPLC-272H; first compound 0.08 µM): 0.299
relative viability (EPLC-272H; first compound 0.253 µM): 0.243
relative viability (EPLC-272H; first compound 0.8 µM): 0.22
relative viability (EPLC-272H; first compound 2.53 µM): 0.25
relative viability (EPLC-272H; first compound 8 µM): 0.208
relative viability (NCI-H2085; first compound 0.08 µM): 0.798
relative viability (NCI-H2085; first compound 0.253 µM): 0.746
relative viability (NCI-H2085; first compound 0.8 µM): 0.79
relative viability (NCI-H2085; first compound 2.53 µM): 0.803
relative viability (NCI-H2085; first compound 8 µM): 0.67
relative viability (NCI-H1975; first compound 0.08 µM): 0.873
relative viability (NCI-H1975; first compound 0.253 µM): 0.757
relative viability (NCI-H1975; first compound 0.8 µM): 0.684
relative viability (NCI-H1975; first compound 2.53 µM): 0.732
relative viability (NCI-H1975; first compound 8 µM): 0.78
relative viability (LXF-289; first compound 0.08 µM): 0.193
relative viability (LXF-289; first compound 0.253 µM): 0.18
relative viability (LXF-289; first compound 0.8 µM): 0.183
relative viability (LXF-289; first compound 2.53 µM): 0.119
relative viability (LXF-289; first compound 8 µM): 0.182
relative viability (SW 900; first compound 0.08 µM): 0.595
relative viability (SW 900; first compound 0.253 µM): 0.919
relative viability (SW 900; first compound 0.8 µM): 0.571
relative viability (SW 900; first compound 2.53 µM): 0.704
relative viability (SW 900; first compound 8 µM): 0.506
relative viability (HCC-827; first compound 0.08 µM): 0.428
relative viability (HCC-827; first compound 0.253 µM): 0.413
relative viability (HCC-827; first compound 0.8 µM): 0.431
relative viability (HCC-827; first compound 2.53 µM): 0.379
relative viability (HCC-827; first compound 8 µM): 0.411
relative viability (LK-2; first compound 0.08 µM): 0.214
relative viability (LK-2; first compound 0.253 µM): 0.157
relative viability (LK-2; first compound 0.8 µM): 0.195
relative viability (LK-2; first compound 2.53 µM): 0.155
relative viability (LK-2; first compound 8 µM): 0.19
relative viability (HCC-78; first compound 0.08 µM): 0.431
relative viability (HCC-78; first compound 0.253 µM): 0.505
relative viability (HCC-78; first compound 0.8 µM): 0.458
relative viability (HCC-78; first compound 2.53 µM): 1.28
relative viability (HCC-78; first compound 8 µM): 0.444
relative viability (SK-LU-1; first compound 0.08 µM): 0.349
relative viability (SK-LU-1; first compound 0.253 µM): 0.374
relative viability (SK-LU-1; first compound 0.8 µM): 0.357
relative viability (SK-LU-1; first compound 2.53 µM): 0.314
relative viability (SK-LU-1; first compound 8 µM): 0.311
relative viability (NCI-H23; first compound 0.08 µM): 0.36
relative viability (NCI-H23; first compound 0.253 µM): 0.57
relative viability (NCI-H23; first compound 0.8 µM): 0.417
relative viability (NCI-H23; first compound 2.53 µM): 0.339
relative viability (NCI-H23; first compound 8 µM): 0.254
relative viability (NCI-H2405; first compound 0.08 µM): 0.747
relative viability (NCI-H2405; first compound 0.253 µM): 0.683
relative viability (NCI-H2405; first compound 0.8 µM): 0.756
relative viability (NCI-H2405; first compound 2.53 µM): 0.772
relative viability (NCI-H2405; first compound 8 µM): 0.81
relative viability (NCI-H322M; first compound 0.08 µM): 0.46
relative viability (NCI-H322M; first compound 0.253 µM): 0.453
relative viability (NCI-H322M; first compound 0.8 µM): 0.458
relative viability (NCI-H322M; first compound 2.53 µM): 0.302
relative viability (NCI-H322M; first compound 8 µM): 0.487
relative viability (LCLC-103H; first compound 0.08 µM): 0.597
relative viability (LCLC-103H; first compound 0.253 µM): 0.543
relative viability (LCLC-103H; first compound 0.8 µM): 0.428
relative viability (LCLC-103H; first compound 2.53 µM): 0.514
relative viability (LCLC-103H; first compound 8 µM): 0.406
relative viability (EMC-BAC-2; first compound 0.08 µM): 0.279
relative viability (EMC-BAC-2; first compound 0.253 µM): 0.288
relative viability (EMC-BAC-2; first compound 0.8 µM): 0.294
relative viability (EMC-BAC-2; first compound 2.53 µM): 0.235
relative viability (EMC-BAC-2; first compound 8 µM): 0.315
relative viability (NCI-H2126; first compound 0.08 µM): 0.873
relative viability (NCI-H2126; first compound 0.253 µM): 0.949
relative viability (NCI-H2126; first compound 0.8 µM): 0.841
relative viability (NCI-H2126; first compound 2.53 µM): 0.795
relative viability (NCI-H2126; first compound 8 µM): 0.777
relative viability (LOU-NH91; first compound 0.08 µM): 0.694
relative viability (LOU-NH91; first compound 0.253 µM): 0.561
relative viability (LOU-NH91; first compound 0.8 µM): 0.597
relative viability (LOU-NH91; first compound 2.53 µM): 0.495
relative viability (LOU-NH91; first compound 8 µM): 0.642
relative viability (SW 1573; first compound 0.08 µM): 0.268
relative viability (SW 1573; first compound 0.253 µM): 0.161
relative viability (SW 1573; first compound 0.8 µM): 0.189
relative viability (SW 1573; first compound 2.53 µM): 0.215
relative viability (SW 1573; first compound 8 µM): 0.184
relative viability (RERF-LC-KJ; first compound 0.08 µM): 0.561
relative viability (RERF-LC-KJ; first compound 0.253 µM): 0.568
relative viability (RERF-LC-KJ; first compound 0.8 µM): 0.557
relative viability (RERF-LC-KJ; first compound 2.53 µM): 0.493
relative viability (RERF-LC-KJ; first compound 8 µM): 0.536
relative viability (NCI-H3122; first compound 0.08 µM): 0.414
relative viability (NCI-H3122; first compound 0.253 µM): 0.514
relative viability (NCI-H3122; first compound 0.8 µM): 0.403
relative viability (NCI-H3122; first compound 8 µM): 0.518
relative viability (ChaGo-K-1; first compound 0.08 µM): 0.215
relative viability (ChaGo-K-1; first compound 0.253 µM): 0.223
relative viability (ChaGo-K-1; first compound 0.8 µM): 0.196
relative viability (ChaGo-K-1; first compound 2.53 µM): 0.195
relative viability (ChaGo-K-1; first compound 8 µM): 0.231
relative viability (LU99A; first compound 0.08 µM): 0.272
relative viability (LU99A; first compound 0.253 µM): 0.251
relative viability (LU99A; first compound 0.8 µM): 0.253
relative viability (LU99A; first compound 2.53 µM): 0.283
relative viability (LU99A; first compound 8 µM): 0.288
relative viability (NCI-H1666; first compound 0.08 µM): 0.653
relative viability (NCI-H1666; first compound 0.253 µM): 0.66
relative viability (NCI-H1666; first compound 0.8 µM): 0.647
relative viability (NCI-H1666; first compound 2.53 µM): 0.613
relative viability (NCI-H1666; first compound 8 µM): 0.499
